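Growth conditions: 96-well plates. Treatment: test compound, 48 hours, 5 concentrations. Analysis: linear interpolation between bracketing concentrations; unreached endpoints set to highest concentration. GI50 is the concentration that inhibits growth by half. TGI: total growth inhibition.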
Assays:
Assay in all cases: NCI anticancer screen, dose series, 48 h
[1] = system: NCI-H23 lung
[2] = system: IGROV1 ovarian
[3] = system: SK-MEL-2 melanoma
[4] = system: 786-0 renal
[5] = system: M14 melanoma
[6] = system: A498 renal
[7] = system: K-562 leukemia
[8] = system: UACC-62 melanoma
[9] = system: SN12C renal
[10] = system: UACC-257 melanoma
[11] = system: MDA-MB-435
[12] = system: SK-MEL-5 melanoma
[13] = system: NCI-H460 lung
[14] = system: RPMI-8226 leukemia
[15] = system: SK-OV-3 ovarian
[16] = system: DU-145 prostate
[17] = system: PC-3 prostate
[18] = system: MOLT-4 leukemia
[19] = system: NCI-H226 lung
[20] = system: COLO 205 colon
[21] = system: BT-549 breast
[22] = system: SW-620 colon
[23] = system: OVCAR-4 ovarian
[24] = system: OVCAR-5 ovarian
[25] = system: ACHN renal
[26] = system: A549 NSCLC
[27] = system: T-47D breast
[28] = system: SR leukemia
[29] = system: MDA-MB-231 breast
[30] = system: SNB-19 CNS
[31] = system: CCRF-CEM leukemia
[32] = system: HS 578T breast
[33] = system: NCI-H522 lung
[34] = system: HOP-62 NSCLC
[35] = system: KM12 colon
[36] = system: SF-268 CNS
[37] = system: SK-MEL-28 melanoma
[38] = system: HL-60(TB) leukemia
[39] = system: HCC-2998 colon
[40] = system: SF-539 CNS
[41] = system: UO-31 renal
[42] = system: CAKI-1 renal
[43] = system: HCT-116 colon
[44] = system: U251 CNS
[45] = system: HOP-92 NSCLC
[46] = system: NCI/ADR-RES ovarian
[47] = system: MCF7 breast
[48] = system: OVCAR-8 ovarian
[49] = system: RXF 393 renal
[50] = system: HCT-15 colon
[51] = system: EKVX NSCLC
[52] = system: HT29 colon

Nc1ccc(-c2nnc(SCc3ccc(O)c4ncccc34)n2-c2ccccc2)cc1
GI50 [1]: 32.2 nM
TGI [1]: > 100 µM
GI50 [2]: 49.7 nM
TGI [2]: > 100 µM
GI50 [3]: 64.4 nM
TGI [3]: 4.84 µM
GI50 [4]: 238 nM
TGI [4]: > 100 µM
GI50 [5]: 40.2 nM
TGI [5]: 4.3 µM
GI50 [6]: 933 nM
TGI [6]: > 24.6 µM
GI50 [7]: 15.2 nM
TGI [7]: > 100 µM
GI50 [8]: 65 nM
TGI [8]: 13.2 µM
GI50 [9]: 31.8 nM
TGI [9]: > 100 µM
GI50 [10]: 62.2 nM
GI50 [11]: 32.1 nM
TGI [11]: > 100 µM
GI50 [12]: 25.2 nM
TGI [12]: 80.4 nM
GI50 [13]: 19 nM
TGI [13]: > 33 µM
GI50 [14]: 24.4 nM
TGI [14]: > 100 µM
GI50 [15]: 118 nM
TGI [15]: 911 nM
GI50 [16]: 33.9 nM
TGI [16]: > 100 µM
GI50 [17]: 17 nM
TGI [17]: > 100 µM
GI50 [18]: 48.5 nM
TGI [18]: > 100 µM
GI50 [19]: 1150 nM
TGI [19]: > 100 µM
GI50 [20]: 1010 nM
TGI [20]: 3.42 µM
GI50 [21]: 29.1 nM
TGI [21]: > 100 µM
GI50 [22]: 45.4 nM
TGI [22]: > 100 µM
GI50 [23]: 68.8 nM
TGI [23]: > 100 µM
GI50 [24]: 290 nM
TGI [24]: > 100 µM
GI50 [25]: 63.9 nM
GI50 [26]: 40.3 nM
TGI [26]: > 100 µM
GI50 [27]: 73.5 nM
TGI [27]: > 100 µM
GI50 [28]: 44.1 nM
TGI [28]: > 100 µM
GI50 [29]: 69.5 nM
TGI [29]: 98.8 µM
GI50 [30]: 32.3 nM
TGI [30]: > 100 µM
GI50 [31]: 36.8 nM
TGI [31]: > 100 µM
GI50 [32]: 47.8 nM
TGI [32]: > 100 µM
GI50 [33]: 26.8 nM
TGI [33]: 6.81 µM
GI50 [34]: 66.1 nM
TGI [34]: > 100 µM
GI50 [35]: 50.4 nM
TGI [35]: > 100 µM
GI50 [36]: 45.2 nM
TGI [36]: > 100 µM
GI50 [37]: 72.4 nM
TGI [37]: > 100 µM
GI50 [38]: 40.5 nM
TGI [38]: > 100 µM
GI50 [39]: 58.3 nM
TGI [39]: > 100 µM
GI50 [40]: 48 nM
TGI [40]: > 100 µM
GI50 [41]: 140 nM
TGI [41]: > 100 µM
GI50 [42]: 62.7 nM
TGI [42]: > 100 µM
GI50 [43]: < 17.2 nM
TGI [43]: > 37.4 µM
GI50 [44]: 25.4 nM
TGI [44]: > 100 µM
TGI [45]: 20.3 nM
GI50 [46]: 2290 nM
TGI [46]: > 100 µM
GI50 [47]: 28.7 nM
TGI [47]: > 100 µM
GI50 [48]: 38.7 nM
TGI [48]: > 100 µM
GI50 [49]: 81.6 nM
TGI [49]: > 100 µM
GI50 [50]: 49.8 nM
TGI [50]: > 100 µM
GI50 [51]: 415 nM
TGI [51]: > 100 µM
GI50 [52]: 890 nM
TGI [52]: > 100 µM

Source: PubChem BioAssay (NCI)
